Data as given in US11478451B1, “Macrocyclic chlorine substituted indole derivatives” (Bayer Aktiengesellschaft, priority 2017, dated 2022).
Structures can show the parent of a compound that is named as a salt. Where two headings read alike, the source gives them in different places.

Columns and labels:
AMO-1 cells = assay: Antiproliferation assay (CellTiter-Glo, 72 h), AMO-1; assay type: cell-based; settings: IC50, median, AMO-1, 72 h, read-out: Antiproli AMO-1 [M] median
Experimental: Assessment of the Anti-Proliferative Effect of Compounds in Different Cell Lines
The impact of compounds on the proliferation of different cell lines was assessed using the CellTiter-Glo® Luminescent Cell Viability reagent from Promega (G7573).
In parallel, cells were plated in a reference (day 0) plate for time zero determination.
Rim wells were excluded. The cells were incubated for 72 h hours in a humidified incubator at 37° C. The day 0 plate was measured by adding 30 μL/well of CTG solution (CellTiter-Glo® Luminescent Cell Viability reagent, Promega G7573) to time zero wells in the reference plate followed by a 10 minutes incubation and luminescence reading at 0.1 ms. using the PHERAstar FS microplate reader (BMG Labtech).
After 72 h incubation, the treated plates were measured in the same way as the day 0 plate mentioned above.

SUDHL5 cells [1] = assay: Induction of caspase-3/7 activity (Caspase-Glo 3/7), SUDHL5; assay type: cell-based; settings: EC50, median, SUDHL5, 3 h treatment
Experimental: (§1) Induction of Caspase-3/7 Activity Upon Treatment of Cells with Selected Compounds
(§2) The BH3-domain of MCL-1 sequesters pro-apoptotic proteins, thereby inhibiting apoptosis. In contrast, MCL-1 inhibitors are expected to antagonize this effect leading to an increase in apoptosis, which can be determined by measuring the activity of caspase-3/7.
(§3) The activity of caspase-3/7 was determined in DLBCL (Diffuse large B-cell lymphoma) cell lines (SUDHL5 and SUDHL10) upon treatment with different compounds, using the Caspase-Glo® 3/7 reagent from Promega (G8092).
(§4) Rim wells were excluded. The cells were incubated for 3 h hours in a humidified incubator at 37° C.
(§5) For the evaluation of the results, the background measured with “medium-only” was subtracted from all other values.

SUDHL5 cells [2] = assay: Induction of cytotoxicity (CellTiter-Glo, 5 h), SUDHL5; settings: SUDHL5, 5 h
SUDHL10 cells [3] = assay: Induction of cytotoxicity (CellTiter-Glo, 5 h), SUDHL10; settings: read-out: Cytotox SUDHL10 [M] (median); IC50, median; SUDHL10, 5 h
SUDHL10 cells [4] = assay: Induction of caspase-3/7 activity (Caspase-Glo 3/7), SUDHL10; assay type: cell-based; settings: EC50, median; SUDHL10, 3 h treatment
Experimental: as §1, §2, §3, §4, §5

[5] = Homo sapiens, SU-DHL-5, 5 h, read-out: Cytotox SUDHL5 [M] (median), IC50, median
[6] = read-out: Cytotox SUDHL5 [M] (median), IC50, median

| EC50 (SUDHL5 cells [1]; Homo sapiens, SU-DHL-5, 3 h) | Structure (SMILES) | IC50 (AMO-1 cells; Homo sapiens, AMO1, 72 h) | further results |
| --- | --- | --- | --- |
| – | Cc1nn(C)c2c1-c1c(Cl)ccc3c(CCCOc4cccc5ccccc45)c(C(=O)O)n(c13)CCCCOC2 (racemic) [Example 2, rac-4-chloro-1,3-dimethyl-7-[3-(naphthalen-1-yloxy)propyl]-1,10,11,12,13,15-hexahydropyrazolo[4′,3′:9,10][1,6]oxazacycloundecino[8,7,6-hi]indole-8-carboxylic acid] | 4.9e-06 M | – |
| – | CCc1c2c(nn1C)CN(C)CCCCn1c(C(=O)O)c(CCCOc3cccc4cc(F)ccc34)c3ccc(Cl)c-2c31 (racemic) [Example 5, (rac)-4-chloro-3-ethyl-7-{3-[(6-fluoronaphthalen-1-yl)oxy]propyl}-2,14-dimethyl-10,11,12,13,14,15-hexahydro-2H-pyrazolo[3′,4′:8,9][1,6]diazacycloundecino[10,11,1-hi]indole-8-carboxylic acid] | 6.1e-07 M | – |
| – | Cc1c2c(nn1C)COCCCCn1c(C(=O)O)c(CCCOc3cccc4cc(F)ccc34)c3ccc(Cl)c-2c31 (racemic) [Example 14, (rac)-4-chloro-7-{3-[(6-fluoronaphthalen-1-yl)oxy]propyl}-2,3-dimethyl-2,10,11,12,13,15-hexahydropyrazolo[4′,3′:9,10][1,6]oxazacycloundecino[8,7,6-hi]indole-8-carboxylic acid] | 7.4e-07 M | – |
| – | CCc1c2c(nn1C)CN(C)CCCCn1c(C(=O)O)c(CCCOc3cccc4ccccc34)c3ccc(Cl)c-2c31 (racemic) [Example 22, (rac)-4-chloro-3-ethyl-2,14-dimethyl-7-[3-(naphthalen-1-yloxy)propyl]-10,11,12,13,14,15-hexa-hydro-2H-pyrazolo[3′,4′:8,9][1,6]diazacycloundecino[10,11,1-hi]indole-8-carboxylic acid] | 6.6e-07 M | – |
| – | CCc1c2c(nn1C)COCCCCn1c(C(=O)O)c(CCCOc3cccc4cc(F)ccc34)c3ccc(Cl)c-2c31 (racemic) [Example 36, (rac)-4-chloro-3-ethyl-7-{3-[(6-fluoronaphthalen-1-yl)oxy]propyl}-2-methyl-2,10,11,12,13,15-hexahydropyrazolo[4′,3′:9,10][1,6]oxazacycloundecino[8,7,6-hi]indole-8-carboxylic acid] | 2.9e-07 M | – |
| 3.5 µM | CCc1c2c(nn1C)CCCCCCn1c(C(=O)O)c(CCCOc3cccc4cc(F)ccc34)c3ccc(Cl)c-2c31 (racemic) [Example 54, (rac)-4-chloro-3-ethyl-7-{3-[(6-fluoronaphthalen-1-yl)oxy]propyl}-2-methyl-10,11,12,13,14,15-hexahydro-2H-pyrazolo[4′,3′:4,5]azacycloundecino[3,2,1-hi]indole-8-carboxylic acid] | – | – |
| 8.5 µM | Cc1c2c(nn1C)COCC(F)(F)CCn1c(C(=O)O)c(CCCOc3cccc4cc(F)ccc34)c3ccc(Cl)c-2c31 (racemic) [Example 90, (rac)-4-Chloro-12,12-difluoro-7-{3-[(6-fluoronaphthalen-1-yl)oxy]propyl}-2,3-dimethyl-2,10,11,12,13,15-hexahydropyrazolo[4′,3′:9,10][1,6]oxazacycloundecino[8,7,6-hi]indole-8-carboxylic acid] | 4.9e-06 M | IC50 (SUDHL5 cells [2]; [5]): 9.9e-06 M |
| – | CCc1nn(CCN2CCOCC2)c2c1-c1c(Cl)ccc3c(CCCOc4cccc5ccccc45)c(C(=O)O)n(c13)C/C=C\CN(C)C2 (single isomer, unassigned; enantiomer 1) [Example 43, (11Z)-4-chloro-3-ethyl-14-methyl-1-[2-(morpholin-4-yl)ethyl]-7-{3-[(naphthalen-1-yl)oxy]propyl}-10,13,14,15-tetrahydro-1H-pyrazolo[3′,4′:8,9][1,6]diazacycloundecino[10,11,1-hi]indole-8-carboxylic acid-ammonia salt (Enantiomer 1)] | – | IC50 (SUDHL5 cells [2]; [5]): 6e-07 M |
| – | CCc1nn(CCN2CCOCC2)c2c1-c1c(Cl)ccc3c(CCCOc4cccc5ccccc45)c(C(=O)O)n(c13)CCCCN(C)C2 (single isomer, unassigned; enantiomer 1) [Example 46, 4-chloro-3-ethyl-14-methyl-1-[2-(morpholin-4-yl)ethyl]-7-{3-[(naphthalen-1-yl)oxy]propyl}-10,11,12,13,14,15-hexahydro-1H-pyrazolo[3′,4′:8,9][1,6]diazacycloundecino[10,11,1-hi]indole-8-carboxylic acid (Enantiomer 1)] | 5.9e-07 M | IC50 (SUDHL5 cells [2]; [6]): 4e-07 M |
| 0.8 µM | CCc1c2c(nn1C)CCCCCCn1c(C(=O)O)c(CCCOc3cccc4ccccc34)c3ccc(Cl)c-2c31 (single isomer, unassigned; enantiomer 1) [Example 52, (+)-4-chloro-3-ethyl-2-methyl-7-{3-[(naphthalen-1-yl)oxy]propyl}-10,11,12,13,14,15-hexahydro-2H-pyrazolo[4′,3′:4,5]azacycloundecino[3,2,1-hi]indole-8-carboxylic acid-N-ethylethanamine salt—Enantiomer 1] | 2.2e-06 M | IC50 (SUDHL10 cells [3]): 2e-06 M |
| 9.3 µM | CCc1c2c(nn1C)CN(CCOC)CCCCn1c(C(=O)O)c(CCCOc3cccc4cc(F)ccc34)c3ccc(Cl)c-2c31 (single isomer, unassigned; enantiomer 1) [Example 132, 4-chloro-3-ethyl-7-{3-[(6-fluoronaphthalen-1-yl)oxy]propyl}-14-(2-methoxyethyl)-2-methyl-10,11,12,13,14,15-hexahydro-2H-pyrazolo[3′,4′:8,9][1,6]diazacycloundecino[10,11,1-hi]indole-8-carboxylic acid (Enantiomer 1)] | – | IC50 (SUDHL5 cells [2]; [5]): 8.2e-06 M |
| 4.5 µM | CCc1c2c(nn1C)CN(C)CCCCn1c(C(=O)O)c(CCCOc3cccc4ccccc34)c3ccc(Cl)c-2c31 (single isomer, unassigned; enantiomer 2) [Example 24, 4-chloro-3-ethyl-2,14-dimethyl-7-[3-(naphthalen-1-yloxy)propyl]-10,11,12,13,14,15-hexahydro-2H-pyrazolo[3′,4′:8,9][1,6]diazacycloundecino[10,11,1-hi]indole-8-carboxylic acid (Enantiomer 2)] | – | – |
| 5.4 µM | CCc1c2c(nn1C)COCCCCn1c(C(=O)O)c(CCCOc3cccc4cc(F)ccc34)c3ccc(Cl)c-2c31 (single isomer, unassigned; enantiomer 2) [Example 38, (−)-4-chloro-3-ethyl-7-{3-[(6-fluoronaphthalen-1-yl)oxy]propyl}-2-methyl-2,10,11,12,13,15-hexahydropyrazolo[4′,3′:9,10][1,6]oxazacycloundecino[8,7,6-hi]indole-8-carboxylic acid-N-ethylethanamine salt (Enantiomer 2)] | – | – |
| – | Cc1c2c(nn1C)COCC(F)(F)CCn1c(C(=O)O)c(CCCOc3cccc4ccccc34)c3ccc(Cl)c-2c31 (single isomer, unassigned; enantiomer 2) [Example 57, 4-chloro-12,12-difluoro-2,3-dimethyl-7-{3-[(naphthalen-1-yl)oxy]propyl}-2,10,11,12,13,15-hexahydropyrazolo[4′,3′:9,10][1,6]oxazacycloundecino[8,7,6-hi]indole-8-carboxylic acid-N-ethylethanamine salt—Enantiomer 2] | – | IC50 (AMO-1 cells): 7.6e-06 M; EC50 (SUDHL10 cells [4]): 8 µM; EC50 (SUDHL5 cells [1]): 3.2 µM; IC50 (SUDHL5 cells [2]; [6]): 4.9e-06 M |
| – | Cc1c2c(nn1C)COCC1CCC1Cn1c(C(=O)O)c(CCCOc3cccc4ccccc34)c3ccc(Cl)c-2c31 (single isomer, unassigned; stereoisomer 1) [Example 63] | – | EC50 (SUDHL5 cells [1]): 9 µM |
